Experimental data reported in patent US10517867B2, “Posaconazole derivative, pharmaceutical composition and use thereof” (priority 2016, dated 2019).
Like-named read-outs stand apart in the source and are kept apart here.

What was measured:
[1] = In vitro metabolic stability in human plasma; assay type: in vitro ADME; conditions: human, plasma, 37° C., 10 μM compound, read-out: Human plasma T1/2
Method in brief: (§1)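 Human or rat plasma, preincubated 5 min at 37 °C, or intestinal S9 at 37 °C, spiked from 1 mM stock; triplicates sampled at 1, 2, 5, 15 and 30 min into cold internal standard. HPLC quantitation; half-life by non-compartmental analysis.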

[2] = system: Aspergillus Fumigutus (AF) strains; assay: Aspergillus fumigatus keratitis in rats, intravenous administration; conditions: 10 mg/kg tail vein once daily for 5 days; mean ± SD of 10 rats
[3] = system: Candida albicans ATCC10231; assay: Systemic fungal infection in mice, intragastric administration; assay type: in vivo, ICR mice; conditions: Candida albicans, ATCC10231, po
[4] = system: Aspergillus fumigatus AF293; assay: Lung Aspergillus fumigatus infection in immunosuppressed mice, intravenous administration; conditions: for responders at 20 mg/kg: Aspergillus fumigatus, AF293, in Mus musculus, iv
Description: ICR male mice were injected intraperitoneally with cyclophosphamide 150 mg/kg and injected subcutaneously with dexamethasone 150 mg/kg for 10 consecutive days. At the same time, the blood was taken to measure the changes of peripheral white blood cells and neutrophils, and mice with neutrophils consistently lower than 100/μl were selected as successfully immunosuppressed mice. Immediately after the last injection, the mice were anesthetized with ethyl ether, and mice were transferred from the initial state of excitement to inhibition. After their bodies were relaxed, the mice were immediately taken. Left hand was used to grasp the mouse to make it stand upright, the middle finger pressed the mouth so that it could breath only with the nose, and the ring finger gently pressed the abdomen to move the diaphragm muscle upward. 30 μl of conidia suspension (Aspergillus fumigatus AF293, 3×10^6 conidia) was sent to the nostrils of the anesthetized mice by a micropipette to allow spontaneous inhalation. After the mouse returned to normal breathing, it was returned to the cage. […] The death of the mice was observed and the survival time was recorded. Seven days later, the mice were sacrificed and their lung tissues were taken to observe the fungal loads of Aspergillus fumigatus in the lungs of the mice.

[5] = system: Candida albicans ATCC10231; assay: Systemic fungal infection in mice, intravenous administration; assay type: in vivo, ICR mice
[6] = In vitro metabolic stability in rat intestine S9; assay type: in vitro ADME; conditions: rat, intestinal S9, pH 7.4; 37° C., 10 μM compound, 1 mg/mL S9, NADPH regeneration system; read-out: Rat intestine S9 T1/2
Method in brief: as §1

[7] = Solid stability test (stability chamber, HPLC total impurity); assay type: physicochemical
[8] = Determination of solubility in deionized water (HPLC, external standard); conditions: 25 °C, water, thermodynamic from solid
[9] = In vitro metabolic stability in rat plasma; assay type: in vitro ADME; conditions: rat, plasma, 37° C., 10 μM compound, read-out: Rat plasma T1/2
Method in brief: as §1

[10] = In vitro metabolic stability in human intestine S9; assay type: in vitro ADME; conditions: human, intestinal S9; 37° C., 10 μM compound, 1 mg/mL S9, NADPH regeneration system; read-out: Human intestine S9 T1/2
Method in brief: as §1

[11] = system: Candida albicans ATCC10231; assay: Candida albicans vaginitis in mice, intragastric administration; assay type: in vivo, KM mice; conditions: logarithm of the CFU values, mean ± SD of 20 mice, 20 mg/kg intragastric once a day

Which half-life at 10 µM [1] does the source give for `CC[C@@H]([C@H](C)O)n1ncn(-c2ccc(N3CCN(c4ccc(OC[C@@H]5CO[C@@](Cn6c[n+](C(C)OC(=O)N(C)c7ncccc7COC(=O)CN)cn6)(c6ccc(F)cc6F)C5)cc4)CC3)cc2)c1=O` (stereo partly drawn) [ST0002] here?
Its half-life at 10 µM is 0.78 ± 0.15 min.

And the “Amount of active fungi in cornea at day 7” value [2]?
Its value is 2.37 ± 0.49 10^3 CFU/ml.

What about the responders at 20 mg/kg ([3]; 24 h, read-out: survival rate of mice, day 1, 20 mg/kg intragastric once daily for 5 days, day 1) of the same compound?
The responders at 20 mg/kg was 100%.

And the responders at 20 mg/kg ([3]; 48 h, read-out: survival rate of mice, day 2, 20 mg/kg intragastric once daily for 5 days, day 2)?
The responders at 20 mg/kg was 100%.

What about the responders at 20 mg/kg ([3]; 72 h, read-out: survival rate of mice, day 3, 20 mg/kg intragastric once daily for 5 days, day 3) of the same compound?
The responders at 20 mg/kg was 90%.

And the responders at 20 mg/kg ([3]; 96 h, read-out: survival rate of mice, day 4, 20 mg/kg intragastric once daily for 5 days, day 4)?
Its responders at 20 mg/kg is 80%.

And the responders at 20 mg/kg ([3]; 120 h, read-out: survival rate of mice, day 5, 20 mg/kg intragastric once daily for 5 days, day 5)?
The responders at 20 mg/kg was 80%.

What about the responders at 20 mg/kg ([3]; 144 h, read-out: survival rate of mice, day 6, 20 mg/kg intragastric once daily for 5 days, day 6) of the same compound?
The responders at 20 mg/kg was 70%.

And the responders at 20 mg/kg ([3]; 168 h, read-out: survival rate of mice, day 7, 20 mg/kg intragastric once daily for 5 days, day 7)?
Its responders at 20 mg/kg is 70%.

And the responders at 20 mg/kg ([4]; 24 h, read-out: survival rate of mice, day 1, 20 mg/kg tail vein once daily for 5 days, day 1)?
Its responders at 20 mg/kg is 100%.

What about the responders at 20 mg/kg ([4]; 48 h, read-out: survival rate of mice, day 2, 20 mg/kg tail vein once daily for 5 days, day 2) of the same compound?
Its responders at 20 mg/kg is 100%.

And the responders at 20 mg/kg ([4]; 72 h, read-out: survival rate of mice, day 3, 20 mg/kg tail vein once daily for 5 days, day 3)?
The responders at 20 mg/kg was 100%.

What about the responders at 20 mg/kg ([4]; 96 h, read-out: survival rate of mice, day 4, 20 mg/kg tail vein once daily for 5 days, day 4) of the same compound?
Its responders at 20 mg/kg is 100%.

And the responders at 20 mg/kg ([4]; 120 h, read-out: survival rate of mice, day 5, 20 mg/kg tail vein once daily for 5 days, day 5)?
Its responders at 20 mg/kg is 90%.

What about the responders at 20 mg/kg ([4]; 144 h, read-out: survival rate of mice, day 6, 20 mg/kg tail vein once daily for 5 days, day 6) of the same compound?
The responders at 20 mg/kg was 90%.

What about the responders at 20 mg/kg ([4]; 168 h, read-out: survival rate of mice, day 7, 20 mg/kg tail vein once daily for 5 days, day 7) of the same compound?
Its responders at 20 mg/kg is 80%.

And the lung fungal load ([4]; mouse lung tissue, seven days later, 20 mg/kg tail vein once daily for 5 days, mean ± SD)?
Its lung fungal load is 1.89 ± 0.22 10^4 CFU/ml.

And the responders at 20 mg/kg ([5]; 24 h, read-out: survival rate of mice, day 1)?
The responders at 20 mg/kg was 100%.

What about the responders at 20 mg/kg ([5]; 48 h, read-out: survival rate of mice, day 2) of the same compound?
Its responders at 20 mg/kg is 100%.

And the responders at 20 mg/kg ([5]; 72 h, read-out: survival rate of mice, day 3)?
The responders at 20 mg/kg was 100%.

What about the responders at 20 mg/kg ([5]; 96 h, read-out: survival rate of mice, day 4) of the same compound?
Its responders at 20 mg/kg is 100%.

What about the responders at 20 mg/kg ([5]; 120 h, read-out: survival rate of mice, day 5) of the same compound?
The responders at 20 mg/kg was 100%.

What about the responders at 20 mg/kg ([5]; 144 h, read-out: survival rate of mice, day 6) of the same compound?
The responders at 20 mg/kg was 90%.

And the responders at 20 mg/kg ([5]; 168 h, read-out: survival rate of mice, day 7)?
The responders at 20 mg/kg was 90%.

And the half-life at 10 µM [6]?
The half-life at 10 µM was 18.5 ± 4.56 min.

And the “Total impurity increment in 30 days” value [7]?
The value was 0.63%.

And the solubility at 30 min [8]?
The solubility at 30 min was 30.8 mg/mL.

What about the half-life at 10 µM [9] of the same compound?
Its half-life at 10 µM is 1.12 ± 0.35 min.

What about the half-life at 10 µM [10] of the same compound?
Its half-life at 10 µM is 14.9 ± 3.56 min.

What about the “vaginal fungal load of mice, day 3” value ([11]; day 3) of the same compound?
Its value is 4.18 ± 0.22.

And the “vaginal fungal load of mice, day 5” value ([11]; day 5)?
The value was 4.35 ± 0.41.

And the “vaginal fungal load of mice, day 7” value ([11]; day 7)?
Its value is 3.97 ± 0.47.

And the “vaginal fungal load of mice, day 11” value ([11]; day 11)?
Its value is 3.05 ± 0.27.
